Experimental data as given in US6472348B1, “Pyridone derivatives and herbicides” (Kumiai Chemical Industry Co., Ltd., priority 1996, dated 2002).

Experiments:
Assay type in all cases: in vivo
pale smartweed (Po) [1] = assay: Test Example 2: herbicidal effects by upland field soil treatment; conditions: 100 g of the active ingredient per 10 ares;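 also: grade of growth control; 5 = at least 90%; 4 = 70 to 90%; 3 = 50 to 70%; 2 = 30 to 50%; 1 = 10 to 30%; 0 = under 10%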
Source text: (§1) (Test on Herbicidal Effects by Upland Field Soil Treatment)

barnyardgrass (Ec) [2] = assay: as above; conditions: 100 g of the active ingredient per 10 ares
Source text: as §1

rice flatsedge (Ci) [3] = assay: as above; conditions: 100 g of the active ingredient per 10 ares
Source text: as §1

slender amaranth (Am) [4] = assay: as above; conditions: 100 g of the active ingredient per 10 ares
Source text: as §1

[5] = test system: common lambsquarters (Ch); assay: as above; conditions: 100 g of the active ingredient per 10 ares
Source text: as §1

Digitaria ciliaris (Di) = assay: as above; conditions: 100 g of the active ingredient per 10 ares;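 also: grade of growth control; 5 = at least 90%; 4 = 70 to 90%; 3 = 50 to 70%; 2 = 30 to 50%; 1 = 10 to 30%; 0 = under 10%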
Source text: as §1

pale smartweed (Po) [6] = assay: Test Example 3: herbicidal effects by upland field foliage treatment; set-up: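 grade of growth control; 5 = at least 90%; 4 = 70 to 90%; 3 = 50 to 70%; 2 = 30 to 50%; 1 = 10 to 30%; 0 = under 10%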
Procedure: (§2) (Test on Herbicidal Effects by Upland Field Foliage Treatment)
(§3) In a plastic pot (surface area: 120 cm^2) filled with sand, barnyardgrass (Ec), Diaitaria ciliaris (Di), pale smartweed (Po), slender amaranth (Am), common lambsquarters (Ch) and rice flatsedge (Ci) were sown and covered with soil and were cultured in a green house for 2 weeks. […] The plants were then cultured in the green house, and the evaluation of the herbicidal effects was conducted on the 14th day after the treatment in accordance with the standards as identified in Table 47. Symbol—represents “not tested”.

barnyardgrass (Ec) [7] = assay: as above; set-up: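 grade of growth control; 5 = at least 90%; 4 = 70 to 90%; 3 = 50 to 70%; 2 = 30 to 50%; 1 = 10 to 30%; 0 = under 10%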
Procedure: as §2, §3

rice flatsedge (Ci) [8] = assay: as above; set-up: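 grade of growth control; 5 = at least 90%; 4 = 70 to 90%; 3 = 50 to 70%; 2 = 30 to 50%; 1 = 10 to 30%; 0 = under 10%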
Procedure: as §2, §3

Diaitaria ciliaris (Di) = assay: as above; set-up: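 grade of growth control; 5 = at least 90%; 4 = 70 to 90%; 3 = 50 to 70%; 2 = 30 to 50%; 1 = 10 to 30%; 0 = under 10%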
Procedure: as §2, §3

slender amaranth (Am) [9] = assay: as above; set-up: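 grade of growth control; 5 = at least 90%; 4 = 70 to 90%; 3 = 50 to 70%; 2 = 30 to 50%; 1 = 10 to 30%; 0 = under 10%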
Procedure: as §2, §3

[10] = test system: common lambsquarters (Ch); assay: as above; set-up: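 grade of growth control; 5 = at least 90%; 4 = 70 to 90%; 3 = 50 to 70%; 2 = 30 to 50%; 1 = 10 to 30%; 0 = under 10%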
Procedure: as §2, §3

monochoria (Mo) = assay: Test Example 1: herbicidal effects by paddy field soil treatment; conditions: 100 g of the active ingredient per 10 ares, 21st day after the application, index 0-5 of Table 47;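 also: grade of growth control; 5 = at least 90%; 4 = 70 to 90%; 3 = 50 to 70%; 2 = 30 to 50%; 1 = 10 to 30%; 0 = under 10%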
Procedure: (§4) (Test on Herbicidal Effects by Paddy Field Soil Treatment)
(§5) In a plastic pot (surface area: 100 cm^2) filled with paddy field soil, barnyardgrass (Ec), monochoria (Mo) and bulrush (Sc) were sown after puddling and leveling, and flooded to a water depth of 3 cm. […] The dose was 100 g of the active ingredient per 10 ares. The plants were then cultured in a green house, and the evaluation of the herbicidal effects was conducted on the 21st day after the application in accordance with the standards as identified in Table 47.

barnyardgrass (Ec) [11] = assay: as above; conditions: 100 g of the active ingredient per 10 ares, 21st day after the application, index 0-5 of Table 47
Procedure: as §4, §5

bulrush (Sc) = assay: as above; conditions: 100 g of the active ingredient per 10 ares, 21st day after the application, index 0-5 of Table 47;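 also: grade of growth control; 5 = at least 90%; 4 = 70 to 90%; 3 = 50 to 70%; 2 = 30 to 50%; 1 = 10 to 30%; 0 = under 10%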
Procedure: as §4, §5

[12] = 21st day after the application, index 0-5 of Table 47
[13] = 100 g of the active ingredient per 10 ares, evaluated on the 14th day after treatment
[14] = evaluated on the 21st day after application
[15] = 100 g active ingredient per 10 ares, evaluated 14th day after treatment

Compound	Herbicidal effects Po (pale smartweed (Po) [1]; [12])	Herbicidal effects Ec (barnyardgrass (Ec) [2]; [12])	Herbicidal effects Ci (rice flatsedge (Ci) [3]; [12])	Herbicidal effects Am (slender amaranth (Am) [4]; [12])	Herbicidal effects Ch [5, 12]	Herbicidal effects Di (Digitaria ciliaris (Di); [12])	Herbicidal effects Po (pale smartweed (Po) [6]; [13])	Herbicidal effects Ec (barnyardgrass (Ec) [7]; [13])	Herbicidal effects Ci (rice flatsedge (Ci) [8]; [13])	Herbicidal effects Di (Diaitaria ciliaris (Di); [13])	Herbicidal effects Am (slender amaranth (Am) [9]; [13])	Herbicidal effects Ch [10, 13]	Herbicidal effects Mo (monochoria (Mo))	Herbicidal effects Ec (barnyardgrass (Ec) [11])	Herbicidal effects Sc (bulrush (Sc))	Herbicidal effects Po (pale smartweed (Po) [1]; [14])	Herbicidal effects Ec (barnyardgrass (Ec) [2]; [14])	Herbicidal effects Ci (rice flatsedge (Ci) [3]; [14])	Herbicidal effects Am (slender amaranth (Am) [4]; [14])	Herbicidal effects Ch [5, 14]	also measured
CCCC(Oc1cc(-c2ccc(C(F)(F)F)n(C)c2=O)c(F)cc1Cl)C(=O)OCC (racemic) [1-121]	5	5	5	5	5	5	5	5	5	5	5	5	5	5	5						
CCOC(=O)C(C)OC(=O)c1cc(-c2ccc(C(F)(F)F)n(C)c2=O)c(F)cc1Cl (racemic) [1-143]	5	5	5	5	5	5	5	5	5	5	5	5	5	5	5						
Cn1c(C(F)(F)F)ccc(-c2ccc(Cl)cc2Cl)c1=O [1-3]	5	5	5	5	5	5	5	5	5	5	5	5	5	5	5						
CCOC(=O)C(C)Oc1cc(-c2ccc(C(F)(F)F)n(C)c2=O)c(F)cc1Cl (stereo not drawn) [1-21]	5	5	5	5	5	5	5	5	5	5	5	5	5	5	5						
COCOc1cc(-c2ccc(C(F)(F)F)n(C)c2=O)c(F)cc1Cl [1-24]	5	5	5	5	5	5	5	5	5	5	5	5	5	5	5						
CC(C)Oc1cc(-c2ccc(C(F)(F)F)n(C)c2=O)c(Cl)cc1Cl [1-29]	5	5	5	5	5	5	5	5	5	5	5	5	5	5	5						
C=CCOc1cc(-c2ccc(C(F)(F)F)n(C)c2=O)c(Cl)cc1Cl [1-32]	5	5	5	5	5	5	5	5	5	5	5	5	5	5	5						
CCCN1C(=O)COc2cc(F)c(-c3ccc(C(F)(F)F)n(C)c3=O)cc21 [Compound 2-10]																5	5	5	5	5	Herbicidal effects Di (Digitaria ciliaris (Di); [14]): 5; Herbicidal effects Po (pale smartweed (Po) [6]; [15]): 5; Herbicidal effects Ec (barnyardgrass (Ec) [7]; [15]): 5; Herbicidal effects Ci (rice flatsedge (Ci) [8]; [15]): 5; Herbicidal effects Di (Diaitaria ciliaris (Di); [15]): 5; Herbicidal effects Am (slender amaranth (Am) [9]; [15]): 5; Herbicidal effects Ch [10, 15]: 5
Cn1c(C(F)(F)F)ccc(-c2cc3c(cc2F)OCC(=O)N3CC=CCl)c1=O [Compound 2-14]																5	5	5	5	5	Herbicidal effects Di (Digitaria ciliaris (Di); [14]): 5; Herbicidal effects Po (pale smartweed (Po) [6]; [15]): 5; Herbicidal effects Ec (barnyardgrass (Ec) [7]; [15]): 5; Herbicidal effects Ci (rice flatsedge (Ci) [8]; [15]): 5; Herbicidal effects Di (Diaitaria ciliaris (Di); [15]): 5; Herbicidal effects Am (slender amaranth (Am) [9]; [15]): 5; Herbicidal effects Ch [10, 15]: 5
CCOCc1cc2c(-c3ccc(C(F)(F)F)n(C)c3=O)c(Cl)cc(Cl)c2o1 [Compound 4-30]													5	5	5	5	5	5	5	5	Herbicidal effects Di (Digitaria ciliaris (Di); [14]): 5
CCCOC(C)c1cc2c(-c3ccc(C(F)(F)F)n(C)c3=O)c(F)cc(Cl)c2o1 (stereo not drawn) [Compound 4-37]																5	5	5	5	5	Herbicidal effects Di (Digitaria ciliaris (Di); [14]): 5; Herbicidal effects Po (pale smartweed (Po) [6]; [15]): 5; Herbicidal effects Ec (barnyardgrass (Ec) [7]; [15]): 5; Herbicidal effects Ci (rice flatsedge (Ci) [8]; [15]): 5; Herbicidal effects Di (Diaitaria ciliaris (Di); [15]): 5; Herbicidal effects Am (slender amaranth (Am) [9]; [15]): 5; Herbicidal effects Ch [10, 15]: 5
Cn1cc(-c2ccc(Cl)cc2F)c(=O)cc1C(F)(F)F [Compound 6-2]																5	4	5	5	5	Herbicidal effects Di (Digitaria ciliaris (Di); [14]): 5; Herbicidal effects Po (pale smartweed (Po) [6]; [15]): 5; Herbicidal effects Ec (barnyardgrass (Ec) [7]; [15]): 4; Herbicidal effects Ci (rice flatsedge (Ci) [8]; [15]): 5; Herbicidal effects Di (Diaitaria ciliaris (Di); [15]): 5; Herbicidal effects Am (slender amaranth (Am) [9]; [15]): 5; Herbicidal effects Ch [10, 15]: 5
Cn1c(C(F)(F)F)ccc(-c2ccc(Cl)cc2)c1=O [Compound No. 1-1]	5	5	5	5	5	5							5	5	5						
C#CCOc1cc(-c2c(C#N)cc(C(F)(F)F)n(C)c2=O)c(F)cc1Cl [Compound No. 11-6, 3-[2-fluoro-4-chloro-5-(2-propionyloxy)phenyl]-4-cyano-1-methyl-6-trifluoromethyl-2(1H)-pyridone]													5	5	5	5	5	5	5	5	Herbicidal effects Di (Digitaria ciliaris (Di); [14]): 5
